# From patent US7989464B2, “mGluR1 antagonists as therapeutic agents” (Schering Corporation, priority 2004, dated 2011)
# Target: T1, hmGluR1 receptor (Homo sapiens, UniProt Q13255)
# T1 construct: expressed in transfected cells
# Assay: IC50 determination: intracellular calcium mobilization (FLIPR) upon Quisqualate stimulation in CHO cells stably expressing hmGluR1
# Type: cell-based
# Details: against Quisqualate 1 μM (EC80), FLIPR calcium mobilization, read-out: IC50 Class
# Method in brief: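 CHO cells stably expressing hmGluR1 were kept overnight in DMEM high glucose with GPT and 1 mM pyruvate, then loaded 2 h with Calcium 3 dye.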
# T1 sequence (Q13255 19-1194): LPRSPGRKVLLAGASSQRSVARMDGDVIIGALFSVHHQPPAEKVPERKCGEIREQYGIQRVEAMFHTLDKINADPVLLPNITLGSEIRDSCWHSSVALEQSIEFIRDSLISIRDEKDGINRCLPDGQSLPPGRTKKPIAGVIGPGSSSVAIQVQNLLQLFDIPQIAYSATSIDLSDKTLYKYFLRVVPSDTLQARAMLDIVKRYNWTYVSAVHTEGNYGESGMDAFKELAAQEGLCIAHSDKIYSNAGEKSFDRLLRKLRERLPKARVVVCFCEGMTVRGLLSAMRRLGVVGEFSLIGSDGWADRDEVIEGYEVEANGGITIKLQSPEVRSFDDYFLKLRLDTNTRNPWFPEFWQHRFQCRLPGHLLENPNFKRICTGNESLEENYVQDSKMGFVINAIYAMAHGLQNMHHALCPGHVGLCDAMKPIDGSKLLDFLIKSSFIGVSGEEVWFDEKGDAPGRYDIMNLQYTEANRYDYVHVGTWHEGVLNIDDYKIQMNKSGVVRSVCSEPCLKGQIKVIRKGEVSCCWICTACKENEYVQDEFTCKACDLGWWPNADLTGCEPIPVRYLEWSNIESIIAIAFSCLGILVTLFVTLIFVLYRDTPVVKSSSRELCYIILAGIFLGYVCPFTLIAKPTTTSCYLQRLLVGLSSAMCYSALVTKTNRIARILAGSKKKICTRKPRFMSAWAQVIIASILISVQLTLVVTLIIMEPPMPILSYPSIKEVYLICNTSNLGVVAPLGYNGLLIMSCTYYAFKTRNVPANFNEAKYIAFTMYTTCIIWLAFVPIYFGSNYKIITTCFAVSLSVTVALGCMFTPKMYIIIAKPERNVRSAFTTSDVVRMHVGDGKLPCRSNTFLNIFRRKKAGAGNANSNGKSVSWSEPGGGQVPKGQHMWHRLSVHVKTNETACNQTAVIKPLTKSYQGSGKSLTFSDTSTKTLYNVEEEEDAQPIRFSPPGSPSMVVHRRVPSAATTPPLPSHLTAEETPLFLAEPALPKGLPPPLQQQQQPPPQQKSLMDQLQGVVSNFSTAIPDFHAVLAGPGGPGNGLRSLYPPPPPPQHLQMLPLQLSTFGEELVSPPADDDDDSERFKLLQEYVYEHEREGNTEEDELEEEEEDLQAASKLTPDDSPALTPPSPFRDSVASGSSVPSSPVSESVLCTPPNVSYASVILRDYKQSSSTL
row,SMILES,IC50 [µM]
1,C=CCOc1ccnc2sc3c(=O)n(-c4ccc(Cl)cc4)cnc3c12 [66F],< 0.05
2,C#CCOc1ccnc2sc3c(=O)n(-c4ccc(Cl)cc4)cnc3c12 [66G],< 0.05
3,O=c1c2sc3nccc(OCCO)c3c2ncn1-c1ccc(Cl)cc1 [66H],> 1
4,C#CCOc1ccnc2sc3c(=O)n(-c4ccc(Br)cc4)cnc3c12 [66I],< 0.05
5,C=CCOc1ccnc2sc3c(=O)n(-c4ccc(Br)cc4)cnc3c12 [66J],< 0.05
6,C=CCCOc1ccnc2sc3c(=O)n(-c4ccc(Br)cc4)cnc3c12 [66K],0.15 to 1
7,O=c1c2sc3nccc(OCC4CC4)c3c2ncn1-c1ccc(Br)cc1 [66L],0.15 to 1
8,C#CCOc1ncnc2sc3c(=O)n(-c4ccc(C)cc4)cnc3c12 [66M],0.05 to 0.15
9,CNc1nc(N)c2c(n1)sc1c(=O)n(-c3ccc(C)cc3)cnc12 [71B],> 1
10,Cc1ccc(-n2cnc3c(sc4nc(N5CCCC5)nc(N)c43)c2=O)cc1 [71C],> 1
11,Cc1ccc(-n2cnc3c(sc4nc(C5CC5)nc(N)c43)c2=O)cc1 [71D],0.15 to 1
12,Cc1ccc(-n2cnc3c(sc4nc(C(F)(F)F)nc(N)c43)c2=O)cc1 [71E],> 1
13,Cc1ccc(-n2cnc3c(sc4nc(S)nc(N)c43)c2=O)cc1 [71F],< 0.05
14,CC(=O)NN(C)c1ccnc2sc3c(=O)n(-c4ccc(Cl)cc4)cnc3c12 [73H],0.15 to 1
15,CC(=O)NN(C)c1ccnc2sc3c(=O)n(-c4ccc(C)cc4)cnc3c12 [73I],0.15 to 1
16,Cc1ccc(-n2cnc3c(sc4nccc(N(C)NS(C)(=O)=O)c43)c2=O)cc1 [73J],0.15 to 1
17,CN(C)c1ncnc2sc3c(=O)n(-c4ccc5occc5c4)cnc3c12 [95AP],< 0.05
18,CN(C)c1ncnc2sc3c(=O)n(-c4ccc(Br)cc4F)cnc3c12 [95AR],< 0.05
19,O=c1c2sc3ncnc(NC4CC4)c3c2ncn1-c1ccc(Br)cc1 [95AU],< 0.05
20,O=c1c2sc3ncnc(NC4CC4)c3c2ncn1-c1ccc2occc2c1 [95AV],< 0.05
21,COc1ccc(-n2cnc3c(sc4ncnc(NC5CC5)c43)c2=O)c(C)c1 [95AW],< 0.05
22,O=c1c2sc3ncnc(NC4CC4)c3c2ncn1-c1ccc(Br)cc1F [95AX],0.05 to 0.15
23,O=c1c2sc3ncnc(NC4CC4)c3c2ncn1-c1ccc2ncsc2c1 [95AZ],< 0.05
24,O=c1c2sc3ncnc(NC4CC4)c3c2ncn1-c1ccc2scnc2c1 [95BA],< 0.05
25,CNc1ncnc2sc3c(=O)n(-c4ccc(Br)cc4)cnc3c12 [95BD],< 0.05

row,SMILES,IC50 [µM]
1,CCNc1ncnc2sc3c(=O)n(-c4ccc(OC)cc4F)cnc3c12 [95BE],0.05 to 0.15
2,CNc1ncnc2sc3c(=O)n(-c4ccc(OC)c(F)c4)cnc3c12 [95BF],< 0.05
3,CNc1ncnc2sc3c(=O)n(-c4ccc5scnc5c4)cnc3c12 [95BG],< 0.05
4,CNc1ncnc2sc3c(=O)n(-c4ccc(OC)cc4C)cnc3c12 [95BH],< 0.05
5,CNc1ncnc2sc3c(=O)n(-c4ccc(OC)cc4F)cnc3c12 [95BI],< 0.05
6,CCNc1ncnc2sc3c(=O)n(-c4ccc5scnc5c4)cnc3c12 [95BJ],< 0.05
7,CCNc1ncnc2sc3c(=O)n(-c4ccc5ncsc5c4)cnc3c12 [95BK],< 0.05
8,CCNc1ncnc2sc3c(=O)n(-c4ccc(OC)c(F)c4)cnc3c12 [95BL],< 0.05
9,C=CCNc1ncnc2sc3c(=O)n(-c4ccc5scnc5c4)cnc3c12 [95BM],< 0.05
10,C=CCNc1ncnc2sc3c(=O)n(-c4ccc(OC)c(F)c4)cnc3c12 [95BN],0.05 to 0.15
11,C=CCNc1ncnc2sc3c(=O)n(-c4ccc(Br)cc4)cnc3c12 [95BO],< 0.05
12,C=CCNc1ncnc2sc3c(=O)n(-c4ccc(Cl)cc4)cnc3c12 [95BP],< 0.05
13,CNc1ncnc2sc3c(=O)n(-c4ccc(Cl)cc4)cnc3c12 [95DB],< 0.05
14,CNc1ncnc2sc3c(=O)n(-c4ccc(F)cc4)cnc3c12 [95DC],< 0.05
15,O=c1c2sc3ncnc(NC4CCC4)c3c2ncn1-c1ccc(Cl)cc1 [95DD],0.15 to 1
16,O=c1c2sc3ncnc(NC4CCC4)c3c2ncn1-c1ccc(F)cc1 [95DF],0.15 to 1
17,Cc1ccc(-n2cnc3c(sc4ncnc(NC5CCC5)c43)c2=O)cc1 [95DH],0.15 to 1
18,COCCNc1ncnc2sc3c(=O)n(-c4ccc(Cl)cc4)cnc3c12 [95DI],< 0.05
19,COCCNc1ncnc2sc3c(=O)n(-c4ccc(C)cc4)cnc3c12 [95DJ],< 0.05
20,O=c1c2sc3ncnc(NC4CC4)c3c2ncn1-c1ccc2c(c1)CCO2 [95DK],< 0.05
21,Cc1ccc(-n2cnc3c(sc4ncnc(NCCCO)c43)c2=O)cc1 [95DL],< 0.05
22,Cc1ccc(-n2cnc3c(sc4ncnc(NCCCCO)c43)c2=O)cc1 [95DN],< 0.05
23,Cc1ccc(-n2cnc3c(sc4ncnc(NCC5CC5)c43)c2=O)cc1 [95DP],0.05 to 0.15
24,O=c1c2sc3ncnc(NCC4CC4)c3c2ncn1-c1ccc(Cl)cc1 [95DR],0.05 to 0.15
25,O=c1c2sc3ncnc(NCC4CC4)c3c2ncn1-c1ccc(Br)cc1 [95DS],0.15 to 1

row,SMILES,IC50 [µM]
1,CN(c1ncnc2sc3c(=O)n(-c4ccc(Cl)cc4)cnc3c12)C1CC1 [95DU],< 0.05
2,CN(c1ncnc2sc3c(=O)n(-c4ccc(Br)cc4)cnc3c12)C1CC1 [95DV],< 0.05
3,COCCn1cnc2c(sc3ncnc(NC4CCC4)c32)c1=O [95DW],> 1
4,COCCNc1ncnc2sc3c(=O)n(CCOC)cnc3c12 [95DX],> 1
5,COCCn1cnc2c(sc3ncnc(NCC(F)(F)F)c32)c1=O [95DY],> 1
6,Cc1ccc(-n2cnc3c(sc4ncnc(N(C)C5CC5)c43)c2=O)cc1 [95DZ],< 0.05
7,COCCn1cnc2c(sc3ncnc(N(C)C)c32)c1=O [95EA],> 1
8,COCCn1cnc2c(sc3ncnc(NC4CC4)c32)c1=O [95EC],> 1
9,O=c1c2sc3ncnc(NCC(F)(F)F)c3c2ncn1-c1ccc(Br)cc1 [95EE],< 0.05
10,O=c1c2sc3ncnc(NCC(F)(F)F)c3c2ncn1-c1ccc(Cl)cc1 [95EF],< 0.05
11,C#CCNc1ncnc2sc3c(=O)n(-c4ccc(Cl)cc4)cnc3c12 [95EG],< 0.05
12,C#CCNc1ncnc2sc3c(=O)n(-c4ccc(C)cc4)cnc3c12 [95EH],< 0.05
13,C#CCNc1ncnc2sc3c(=O)n(-c4ccc(OC)cc4)cnc3c12 [95EI],< 0.05
14,C#CCNc1ncnc2sc3c(=O)n(-c4ccc(OC)cc4F)cnc3c12 [95EJ],0.05 to 0.15
15,C#CCNc1ncnc2sc3c(=O)n(-c4ccc(OC)c(F)c4)cnc3c12 [95EK],0.15 to 1
16,C#CCNc1ncnc2sc3c(=O)n(-c4ccc5scnc5c4)cnc3c12 [95EL],< 0.05
17,C#CCNc1ncnc2sc3c(=O)n(-c4ccc5ncsc5c4)cnc3c12 [95EM],0.15 to 1
18,C#CCNc1ncnc2sc3c(=O)n(-c4ccc5c(c4)OCCO5)cnc3c12 [95EN],0.05 to 0.15
19,C#CCNc1ncnc2sc3c(=O)n(-c4ccc5c(c4)OCO5)cnc3c12 [95EO],0.05 to 0.15
20,C#CCNc1ncnc2sc3c(=O)n(-c4ccc5sccc5c4)cnc3c12 [95EP],0.15 to 1
21,C#CCNc1ncnc2sc3c(=O)n(-c4ccc(Br)cc4)cnc3c12 [95EQ],< 0.05
22,C#CCNc1ncnc2sc3c(=O)n(-c4ccc(F)cc4)cnc3c12 [95ER],< 0.05
23,C#CCNc1ncnc2sc3c(=O)n(-c4ccc5occc5c4)cnc3c12 [95ES],< 0.05
24,Cc1ccc(-n2cnc3c(sc4nc(C)nc(N)c43)c2=O)cc1 [95ET],< 0.05

# Same assay, conditions: against Quisqualate 1 μM (EC80), FLIPR calcium mobilization, read-out: mGluR1 IC50
row,SMILES,IC50 [µM]
1,CN(C)c1ncnc2sc3c(=O)n(-c4ccc5occc5c4)cnc3c12 [95AP],0.0016
2,O=c1c2sc3ncnc(NC4CC4)c3c2ncn1-c1ccc(Br)cc1 [95AU],0.00137
3,CNc1ncnc2sc3c(=O)n(-c4ccc(OC)cc4F)cnc3c12 [95BI],0.0283
4,C=CCNc1ncnc2sc3c(=O)n(-c4ccc(Br)cc4)cnc3c12 [95BO],0.00154
5,C=CCNc1ncnc2sc3c(=O)n(-c4ccc(Cl)cc4)cnc3c12 [95BP],0.00131
6,CN(c1ncnc2sc3c(=O)n(-c4ccc(Br)cc4)cnc3c12)C1CC1 [95DV],0.00194

# Same assay, conditions: against Quisqualate 1 μM (EC80), class symbols, read-out: mGIuR 1 IC50
row,SMILES,IC50 [µM]
1,C=CCOc1ccnc2sc3c(=O)n(-c4ccc(C)cc4)cnc3c12 [66D],< 0.05
2,Cc1ccc(-n2cnc3c(sc4nccc(OCCO)c43)c2=O)cc1 [66E],> 1
3,Cc1ccc(-n2cnc3c(sc4nc(N)nc(N)c43)c2=O)cc1 [71A],< 0.05
4,Nc1ccnc2sc3c(=O)n(C4CCCCC4)cnc3c12 [72A],< 0.05
5,C=CCNc1ccnc2sc3c(=O)n(C4CCCCC4)cnc3c12 [72B],< 0.05
6,COc1ccc(-n2cnc3c(sc4nccc(N)c43)c2=O)cc1 [72C],< 0.05
7,O=c1c2sc3nccc(NC4Cc5ccccc5C4)c3c2ncn1C1CCCCC1 [72D],> 1
8,O=c1c2sc3nccc(NCc4ccccc4)c3c2ncn1C1CCCCC1 [72E],> 1
9,O=c1c2sc3nccc(NCCc4ccccc4)c3c2ncn1C1CCCCC1 [72F],> 1
10,C#CCNc1ccnc2sc3c(=O)n(C4CCCCC4)cnc3c12 [72G],< 0.05
11,Cc1ccc(-n2cnc3c(sc4nccc(N)c43)c2=O)cc1 [72H],< 0.05
12,C=CCNc1ccnc2sc3c(=O)n(-c4ccc(C)cc4)cnc3c12 [72I],< 0.05
13,CCC(=O)Nc1ccnc2sc3c(=O)n(C4CCCCC4)cnc3c12 [73A],> 1
14,CC(=O)Nc1ccnc2sc3c(=O)n(C4CCCCC4)cnc3c12 [73B],> 1
15,O=C(Nc1ccnc2sc3c(=O)n(C4CCCCC4)cnc3c12)c1ccccc1 [73C],> 1
16,O=C(Nc1ccnc2sc3c(=O)n(C4CCCCC4)cnc3c12)C1CCC1 [73D],> 1
17,O=C(Nc1ccnc2sc3c(=O)n(C4CCCCC4)cnc3c12)c1ccco1 [73E],> 1
18,COc1ccc(C(=O)Nc2ccnc3sc4c(=O)n(C5CCCCC5)cnc4c23)cc1 [73F],> 1
19,O=C(Nc1ccnc2sc3c(=O)n(C4CCCCC4)cnc3c12)c1ccc(Cl)cc1 [73G],> 1
20,Cc1ccc(-n2cnc3c(sc4nc(C(C)C)cc(N(C)C)c43)c2=O)cc1 [87A],0.15 to 1
21,CCc1cc(N(C)C)c2c(n1)sc1c(=O)n(-c3ccc(C)cc3)cnc12 [87B],0.05 to 0.15
22,CCNc1ncnc2sc3c(=O)n(-c4ccc(C)nc4)cnc3c12 [95AB],0.15 to 1
23,CCNc1ncnc2sc3c(=O)n(-c4ccc5c(c4)CCO5)cnc3c12 [95AC],< 0.05
24,CCNc1ncnc2sc3c(=O)n(-c4ccc(SC)cc4)cnc3c12 [95AD],< 0.05
25,CN(C)c1ncnc2sc3c(=O)n(-c4ccc5ncsc5c4)cnc3c12 [95C],< 0.05
